The values below come from the Kinase Knowledgebase extract (Sharma et al. 2016).

Values after ≈ are worked out from the molar mass of the structure shown. Some results are limits rather than exact numbers.

For the experiment, the target named is EGFR (UniProt P00533).
EGFR, sequence (P00533 whole entry, looked up): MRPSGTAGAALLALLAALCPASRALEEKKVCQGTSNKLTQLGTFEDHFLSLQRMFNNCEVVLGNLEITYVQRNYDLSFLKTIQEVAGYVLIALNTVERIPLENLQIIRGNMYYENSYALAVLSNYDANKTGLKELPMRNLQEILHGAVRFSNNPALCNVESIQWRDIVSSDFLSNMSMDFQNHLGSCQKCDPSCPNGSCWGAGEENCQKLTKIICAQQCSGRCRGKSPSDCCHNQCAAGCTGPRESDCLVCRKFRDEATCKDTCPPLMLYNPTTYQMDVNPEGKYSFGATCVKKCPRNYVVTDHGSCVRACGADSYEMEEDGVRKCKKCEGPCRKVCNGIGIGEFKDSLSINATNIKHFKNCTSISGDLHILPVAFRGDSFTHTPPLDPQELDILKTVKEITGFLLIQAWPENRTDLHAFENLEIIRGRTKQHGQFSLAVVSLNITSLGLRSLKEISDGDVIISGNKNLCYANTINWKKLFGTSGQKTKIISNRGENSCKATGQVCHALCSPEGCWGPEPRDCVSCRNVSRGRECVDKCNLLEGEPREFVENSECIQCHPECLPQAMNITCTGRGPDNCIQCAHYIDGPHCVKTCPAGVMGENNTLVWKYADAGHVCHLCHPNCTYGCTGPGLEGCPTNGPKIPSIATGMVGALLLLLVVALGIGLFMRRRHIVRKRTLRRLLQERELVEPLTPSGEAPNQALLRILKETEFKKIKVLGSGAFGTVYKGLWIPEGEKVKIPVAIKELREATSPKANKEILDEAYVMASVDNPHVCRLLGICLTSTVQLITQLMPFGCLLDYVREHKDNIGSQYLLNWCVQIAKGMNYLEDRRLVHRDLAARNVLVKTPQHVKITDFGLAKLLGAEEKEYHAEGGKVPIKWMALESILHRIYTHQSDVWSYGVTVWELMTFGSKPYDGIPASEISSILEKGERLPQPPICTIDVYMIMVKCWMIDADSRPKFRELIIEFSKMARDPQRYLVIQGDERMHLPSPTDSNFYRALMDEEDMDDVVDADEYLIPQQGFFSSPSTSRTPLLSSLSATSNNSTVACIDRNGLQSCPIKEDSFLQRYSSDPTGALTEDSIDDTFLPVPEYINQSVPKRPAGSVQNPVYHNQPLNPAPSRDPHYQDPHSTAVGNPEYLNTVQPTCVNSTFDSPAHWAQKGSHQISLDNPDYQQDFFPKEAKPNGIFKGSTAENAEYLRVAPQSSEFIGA
What is called IC50 is the concentration needed to halve the response being measured. Higher therefore signals lower potency. `COc1ccc(Nc2ncnc(Nc3cccc(-c4ccnc(C)n4)c3)n2)cc1OC` returned a half-inhibitory concentration (IC50) greater than 4.5 µg/mL.

Regarding `COc1ccc(Nc2ncnc(N(C)c3ccccc3)n2)cc1OC`, the IC50 was less than 0.4 µg/mL.

In turn, `Oc1cccc(Nc2ncnc(-c3ccccc3)n2)c1` returned an IC50 greater than 4.5 µg/mL.

The compound `COc1cc(Nc2ncnc(-c3ccc(NCCCN)nc3)n2)cc(OC)c1OC` gave an IC50 greater than 4.5 µg/mL.

For the compound `Fc1ccc(Nc2ncnc(Nc3ccc4cn[nH]c4c3)n2)cc1Cl`, the IC50 is less than 0.4 µg/mL.

Take `COc1cc(Nc2ncnc(Nc3[nH]ncc3-c3cccc(Cl)c3)n2)cc(OC)c1OC`: the IC50 was greater than 4.5 µg/mL.

In the case of `COc1cc(Nc2ncnc(Nc3ccc4c(cnn4C)c3)n2)cc(OC)c1OC`, the IC50 was in the range of 0.4 to 2.4 µg/mL (≈ 0.982 to 5.89 µM).

Take `COc1cc(Nc2ncnc(-c3ccnc(N4CCCCC4)c3)n2)cc(OC)c1OC`: the IC50 was greater than 4.5 µg/mL.

With `COc1cc(Nc2ncnc(-n3c(NC(CCO)c4ccccc4)nc4ccccc43)n2)cc(OC)c1OC` (stereo unspecified), the IC50 was greater than 4.5 µg/mL.

For the compound `COc1cc(Nc2ncnc(-n3c(NCc4ccncc4)nc4ccccc43)n2)cc(OC)c1OC`, the IC50 was greater than 4.5 µg/mL.

The compound `COc1cc(Nc2ncnc(Nc3ccc4c(c3)Cc3ccccc3-4)n2)cc(OC)c1OC` returned an IC50 greater than 4.5 µg/mL.

The compound `COc1cc(Nc2ncnc(-n3c(N[C@H](CO)c4ccccc4)nc4ccccc43)n2)cc(OC)c1OC` displayed an IC50 greater than 4.5 µg/mL.

`O=c1[nH]c2ccccc2n1-c1ncnc(Nc2ccncc2)n1` came in with an IC50 greater than 4.5 µg/mL.

The compound `COc1cc(Nc2ncnc(-c3ccnc(NCCCN)c3)n2)cc(OC)c1OC` showed an IC50 greater than 4.5 µg/mL.

On to `CCOC(=O)N1CCC(Nc2ncnc(N3CCCc4cc(C)ccc43)n2)CC1`, for which the IC50 was greater than 4.5 µg/mL.

`COC(=O)c1ccc(-c2cc(Nc3ncnc(NCCNC(C)=O)n3)[nH]n2)cc1` gave an IC50 greater than 4.5 µg/mL.

As for `COC(=O)c1ccc(Nc2ncnc(-c3ccccc3)n2)cc1`, the IC50 is greater than 4.5 µg/mL.

Consider `CN(c1cccc(Cl)c1)c1ncnc(Nc2cccc(OC(F)(F)F)c2)n1`, for which the IC50 is less than 0.4 µg/mL.

`COc1cc(Nc2ncnc(-c3cccc(Cl)c3)n2)cc(OC)c1OC` returned an IC50 greater than 4.5 µg/mL.

The compound `COc1cc(Nc2ncnc(NC(=O)NCCc3ccccc3)n2)cc(OC)c1OC` gave an IC50 greater than 4.5 µg/mL.

`COc1cc(Nc2ncnc(-n3c(N)nc4ccccc43)n2)ccc1OCCn1ccnn1` came in with an IC50 greater than 4.5 µg/mL.

`Nc1ncnc(Nc2nc(-c3ccccc3)cs2)n1` yielded an IC50 greater than 4.5 µg/mL.

Consider `COc1cc(Nc2ncnc(Nc3ccccc3F)n2)cc(OC)c1OC`, for which the IC50 is less than 0.4 µg/mL.

For the compound `COc1cc(Nc2ncnc(-n3c(NC(C)c4ccc(F)cc4)nc4ccccc43)n2)cc(OC)c1OC` (stereo unspecified), the IC50 was greater than 4.5 µg/mL.

In turn, `Cc1cccc(Nc2ncnc(Nc3ccc(O)cc3)n2)c1` yielded an IC50 of less than 0.4 µg/mL.

`COc1cc(Nc2ncnc(-c3cccnc3Nc3cccc(C(F)(F)F)c3)n2)cc(OC)c1OC` showed an IC50 greater than 4.5 µg/mL.

For the compound `COc1ccc(Nc2ncnc(-c3cccs3)n2)cc1OC`, the IC50 is greater than 4.5 µg/mL.

`Clc1cccc(Nc2ncnc(-c3cccs3)n2)c1` came in with an IC50 greater than 4.5 µg/mL.

In the case of `COc1ccc(Nc2ncnc(N(C)C3CCN(C)CC3)n2)cc1OC`, the concentration for half-maximal inhibition (IC50) is greater than 4.5 µg/mL.

For `COc1cc(Nc2ncnc(N3CCN(c4ncccn4)CC3)n2)cc(OC)c1OC`, the IC50 is greater than 4.5 µg/mL.

Compound `COc1ccc(Nc2ncnc(N(C)c3ccccc3Cl)n2)cc1OC` gave an IC50 of less than 0.4 µg/mL.

`COc1ccc(Nc2ncnc(Nc3cccc(C)c3)n2)cc1OC` came in with an IC50 of less than 0.4 µg/mL.

In turn, `O=c1[nH]c2ccccc2n1-c1ncnc(Nc2ccc(Cl)cc2Cl)n1` registered an IC50 greater than 4.5 µg/mL.

`COC(=O)c1ccc(-c2cc(Nc3ncnc(NCc4ccco4)n3)[nH]n2)cc1` showed an IC50 greater than 4.5 µg/mL.

Compound `COc1cc(Nc2ncnc(-c3ccccc3)n2)cc(OC)c1OC` displayed an IC50 greater than 4.5 µg/mL.

For `C=CCNc1ncccc1-c1ncnc(Nc2cc(OC)c(OC)c(OC)c2)n1`, the IC50 is greater than 4.5 µg/mL.

In the case of `COc1cc(Nc2ncnc(Nc3cccc4ccccc34)n2)cc(OC)c1OCCN1CCOCC1`, the IC50 was less than 0.4 µg/mL.

For `CCN(CC)CCOc1cc(Nc2ncnc(-n3c(N)nc4ccccc43)n2)ccc1OC`, the half-maximal inhibitory concentration (IC50) was greater than 4.5 µg/mL.

Turning to `COc1cc(Nc2ncnc(N(C)c3ccc(Cl)cc3)n2)cc(OC)c1OC`, the IC50 was less than 0.4 µg/mL.

In the case of `COc1ccc2c(c1)nc(Nc1ccc3[nH]ccc3c1)n2-c1ncnc(Nc2cc(OC)c(OC)c(OC)c2)n1.COc1ccc2nc(Nc3ccc4[nH]ccc4c3)n(-c3ncnc(Nc4cc(OC)c(OC)c(OC)c4)n3)c2c1`, the IC50 was greater than 4.5 µg/mL.

Turning to `COc1cc(Nc2ncnc(-n3ccc4cccnc43)n2)cc(OC)c1OC`, the IC50 was greater than 4.5 µg/mL.

As to `CN(c1cccc(Cl)c1)c1ncnc(Nc2ccc(F)c(Cl)c2)n1`, the IC50 was less than 0.4 µg/mL.

Take `NC(=O)c1ccc(Nc2ncnc(-n3c(N)nc4ccccc43)n2)cc1`: the IC50 lay within 2.4 to 3.5 µg/mL (≈ 6.93 to 10.1 µM).

In the case of `COc1cc(Nc2ncnc(-n3c(NCc4ccc(Cl)cc4)nc4ccccc43)n2)cc(OC)c1OC`, the IC50 is greater than 4.5 µg/mL.

The compound `NC(=O)c1cccc(Nc2ncnc(-n3c(N)nc4ccccc43)n2)c1` gave an IC50 greater than 4.5 µg/mL.

Compound `COc1cc(C)c(Nc2ncnc(-n3c(N)nc4ccccc43)n2)cc1OC` gave an IC50 greater than 4.5 µg/mL.

For the compound `COc1cc(Nc2ncnc(Nc3cc(-c4cccc(C(F)(F)F)c4)n[nH]3)n2)cc(OC)c1OC`, the IC50 fell in the range of 2.4 to 3.5 µg/mL (≈ 4.92 to 7.18 µM).

As to `NC(=O)c1ccc(Nc2ncnc(-c3ccccc3)n2)cc1`, the IC50 is greater than 4.5 µg/mL.

On to `COc1cc(Nc2ncnc(-c3cccnc3NCC3CCCCC3)n2)cc(OC)c1OC`, for which the IC50 was greater than 4.5 µg/mL.

In the case of `COc1cc(Nc2ncnc(Nc3cc(-c4cccc(Cl)c4)n[nH]3)n2)cc(OC)c1OC`, the IC50 lay within 0.4 to 2.4 µg/mL (≈ 0.881 to 5.29 µM).

`Fc1ccc(CNc2ncccc2-c2ncnc(Nc3cccc(Cn4ccnc4)c3)n2)cc1`: the IC50 fell in the range of 0.4 to 2.4 µg/mL (≈ 0.884 to 5.3 µM).

For `Cc1ccc2c(c1)CCCN2c1ncnc(NCC2CCCO2)n1` (stereo unspecified), the IC50 was greater than 4.5 µg/mL.

The compound `COc1ccc(Sc2ncnc(Nc3cc(OC)c(OC)c(OC)c3)n2)cc1` displayed an IC50 greater than 4.5 µg/mL.

`COc1ccc(Nc2ncnc(-n3c(=O)[nH]c4ccccc43)n2)cc1OC` gave an IC50 of 2.4 to 3.5 µg/mL (≈ 6.59 to 9.61 µM).

`CCOc1cccc(Nc2ncnc(Nc3cc(-c4ccc(C(=O)OC)cc4)n[nH]3)n2)c1` returned an IC50 greater than 4.5 µg/mL.

Turning to `COc1cc(Nc2ncnc(Nc3cccc(O)c3)n2)cc(OC)c1OC`, the IC50 was less than 0.4 µg/mL.
